Entries after “also recorded” stand apart in the source; their conditions may differ. Like-named read-outs stand apart in the source and are kept apart here.
Legend:
[1] = test system: phospholipase D in sweet corn kernel; assay: Phospholipase D activity by release of radiolabelled choline, fractions not distinguished; format: biochemical, Zea mays; settings: sweet corn kernel preparations, fraction not specified
Method: Protein Extraction. Sweet corn (Zea mays L. cv Peaches and Cream) was used for this study. The kernels were obtained locally from a grocery store and stored frozen at −20° C. until it was used for protein extraction. […] The fraction comprising the starch granules was removed by centrifuging the samples at 2500×g for 10 minutes. […] The supernatant from this step was centrifuged at 105,000×g to pellet the microsomal membranes. The supernatant comprising the cytosol was subjected to ammonium sulphate fractionation at 30 and 60% saturation. The precipitated protein was collected by centrifugation at 15000×g and redissolved in 10 mM Tris-HCl pH 7.0 and dialyzed overnight with the same buffer, also containing 0.1 mM DTT, with two changes of 2 L each. […] All steps of protein extraction procedure were carried out at 4° C.
Enzyme Assay. […] The basic assay mixture contained 0.1 M Tris-HCl (pH 7.5), 0.2 mM EGTA, membrane or cytosol protein (2.5 μg), and approximately 100,000 dpm of choline-labelled phosphatidylcholine in 0.1% (v/v) Triton-X 100 (0.01% final), to make a total volume of 1 ml. To study the regulation of PLD by alcohols, aldehydes and metal ions, the appropriate amounts of the reagent solutions were added to the basic reaction mixture. Similarly, citrate and Tris-HCl buffers were used to study the effect of pH on PLD activity. The reaction was terminated after 10 minutes by adding 100 μL of 4 N HCl followed by 1 mL of chloroform/methanol (2:1, v/v) and left overnight. The amount of [^3H]choline released during the reaction was determined by mixing a 0.5 ml aliquot of the aqueous phase directly into 5 ml of scintillation fluid (Ecolume, ICN) and determining the amount of radiolabel using a Beckman LS 6800 Scintillation counter (Beckman Instruments Inc.).
Protein Extraction: Sweet corn (Zea mays L. cv Peaches and Cream) was used for this study. The kernels were obtained locally from a grocery store and stored frozen at −20° C. until used. Frozen kernels were homogenized in 0.1 M Tris-HCl buffer at pH 7.5, containing 1 mM dithiothreitol, I mM phenylmethanesulfonylfluoride, 2 mM EDTA and 1 mM EGTA. The homogenate was filtered through four layers of cheese clothe. After removing the debris, the homogenate was subjected to differential centrifugation to separate mitochondria, microsomes and cytosol. The fraction comprising starch granules was removed by centrifuging the samples at 2500×g for 10 min. The resulting supernatant was subjected to centrifugation at 15000×g to pellet the mitochondrial membrane fraction. The supernatant from this step was centrifuged at 105,000×g to pellet the microsomal membranes. The supernatant was subjected to ammonium sulfate fractionation at 30 and 60% saturation to precipitate the cytosolic proteins. The precipitated proteins were pelleted by centrifugation at 15000×g and dissolved in 10 mM Tris HCI, pH 7.5, and dialyzed overnight in the same buffer also containing 0.1 mM DTT. Resuspended microsomal, mitochondrial membrane preparation and the cytosolic proteins were stored at −80° C. until used for phospholipase D assays.
Assay for Phospholipase D: Phospholipase D activity was determined by the liberation of choline from choline methyl labelled dipalmitoylphosphatidylcholine [L3-phosphatidyl (N-methyl-3H) choline 1,2-dipalmitoyl]. The basic assay mixture contained 0.1 M. Tris-HCl, pH 7.5, 0.2 mM EGTA, 1-2.5 ug of membrane or cytosolic protein (precipitated at 60% ammonium sulfate saturation) and 100,000 dpm of choline-labelled phosphatidylcholine in 0.1% Triton X-100 (final 0.01%), in a total volume of 1 ml. Hexanal and hexanol was added to the assay mixture and incubated for 5 min prior to the addition of substrate. The reaction was terminated after 10 min by the addition of 100 uL of 4N HCl, followed by 1 ml of chloroform: methanol (2:1 v/v) and left overnight.

[2] = test system: parsley leaves; assay: Parsley leaf senescence, excised leaves incubated in the dark for fourteen days; settings: increasing amounts in 2.5 ml water with 0.001% Tween-20, fourteen days in the dark
Method: Mature parsley leaves were excised and floated in water to randomize the leaves. After thorough washing 10 leaflets were incubated in petri plates lined with Whatman #1 filter paper and containing 2.5 ml of water containing various amounts of hexanal and 0.001% final Tween −20. Controls with water alone and Tween −20 were also incubated. The petri plates were incubated in the dark for fourteen days. The leaves were removed, chopped to fine pieces, and portions used for protein and pigment analyses. For protein analysis, a known amount of leaf segments (usually 0.6-0.7 g) were ground with 0.1 N NaOH (1 ml). After removing the debris by centrifugation, protein was determined in aliquots, using the dye-binding method by Bradford, 1976. To measure the pigments, leaf segments were extracted with 5 ml of 95% ethanol overnight in the dark. The absorbance readings were measured at […] to estimate chlorophyll a, at 647 nm for chlorophyll b and at […] for carotenoid. The data presented are the mean of two independent estimations from two sets of leaves incubated separately.

[3] = test system: mitochondrial PLD of sweet corn kernel; assay: Phospholipase D activity by release of radiolabelled choline, mitochondrial fraction; format: biochemical, Zea mays
Method: (§1) Protein Extraction. Sweet corn (Zea mays L. cv Peaches and Cream) was used for this study. The kernels were obtained locally from a grocery store and stored frozen at −20° C. until it was used for protein extraction. Frozen kernels were homogenized in 0.1 m Tris-HCl buffer at pH 7.5 essentially as described by Pinhero et al. (1998), except that sucrose was not included in the homogenizing buffer. The mitochondrial, microsomal and the cytosolic fractions were collected by differential centrifugation (Pinhero et al., 1998). The fraction comprising the starch granules was removed by centrifuging the samples at 2500×g for 10 minutes. The resulting supernatant was subjected to centrifugation at 15,000×g to pellet the mitochondrial membrane fraction (Edwards and Gardestrom, 1987). The supernatant from this step was centrifuged at 105,000×g to pellet the microsomal membranes. The supernatant comprising the cytosol was subjected to ammonium sulphate fractionation at 30 and 60% saturation. The precipitated protein was collected by centrifugation at 15000×g and redissolved in 10 mM Tris-HCl pH 7.0 and dialyzed overnight with the same buffer, also containing 0.1 mM DTT, with two changes of 2 L each. Protein concentration was determined by the method of Bradford (1976) using bovine serum albumin as a standard. All steps of protein extraction procedure were carried out at 4° C.
(§2) Enzyme Assay. […] activity was determined as described by Pinhero et al. (1998) by measuring the release of radiolabelled choline from L3-phosphatidyl(N-methyl-^3H) choline,1,2-dipalmitoyl at 23° C. The basic assay mixture contained 0.1 M Tris-HCl (pH 7.5), 0.2 mM EGTA, membrane or cytosol protein (2.5 μg), and approximately 100,000 dpm of choline-labelled phosphatidylcholine in 0.1% (v/v) Triton-X 100 (0.01% final), to make a total volume of 1 ml. To study the regulation of PLD by alcohols, aldehydes and metal ions, the appropriate amounts of the reagent solutions were added to the basic reaction mixture. Similarly, citrate and Tris-HCl buffers were used to study the effect of pH on PLD activity. The reaction was terminated after 10 minutes by adding 100 μL of 4 N HCl followed by 1 mL of chloroform/methanol (2:1, v/v) and left overnight. The amount of [^3H]choline released during the reaction was determined by mixing a 0.5 ml aliquot of the aqueous phase directly into 5 ml of scintillation fluid (Ecolume, ICN) and determining the amount of radiolabel using a Beckman LS 6800 Scintillation counter (Beckman Instruments Inc.).

[4] = test system: cytosolic PLD of sweet corn kernel; assay: Phospholipase D activity by release of radiolabelled choline, cytosolic fraction; format: biochemical, Zea mays
Method: as §1, §2

[5] = test system: microsomal PLD of sweet corn kernel; assay: Phospholipase D activity by release of radiolabelled choline, microsomal fraction; format: biochemical, Zea mays
Method: as §1, §2

[6] = test system: PLD in leaf and root tissues of maize seedlings; settings: cited from earlier work
[7] = test system: PLD; settings: animal systems; cited from earlier work
[8] = test system: phospholipase D; settings: reported in plants; cited from earlier work
[9] = alcohol added to the assay mixture
[10] = increasing alcohol in the assay mixture
[11] = 0.2 mM of added calcium (10 μM of free calcium)
[12] = maximal stimulation, at 0.5 mM of added calcium, 0.2 mM EGTA in assay
[13] = acetaldehyde, concentration not stated (discussion)
[14] = maximal stimulation, at 50 μM magnesium chloride

CCCCCCO [hexanol]
effect on PLD activity [1]: potent inhibition of PLD activity; also recorded: effective inhibitors of PLD activity | amount of chlorophyll in parsley leaves versus controls [2]: greater amounts of chlorophyll than controls | senescence or aging of parsley leaves [2]: less senescence or aging has occurred

CCCO [propanol]
effect on mitochondrial PLD activity [3, 9]: only a marginal increase | effect on cytosolic PLD activity [4, 10]: initial promotion of cytosolic activity followed by a decline | effect on PLD activity [1]: marginal | promotion in microsomal PLD activity ([5]; between 0.1 and 1% (v/v) propanol): 20-25%

[Cl-].[Na+] [sodium chloride]
effect on mitochondrial PLD activity ([3]; monovalent salt up to 5 mM): remained nearly the same | effect on cytosolic PLD activity ([4]; monovalent salt up to 5 mM): remained nearly the same | effect on PLD activity [1]: did not affect PLD activity substantially; also recorded: did not appear to have any major effects on PLD activity | effect on microsomal PLD activity ([5]; monovalent salt up to 5 mM): remained nearly the same

CCCCCC=O [hexanal]
effect on PLD activity [1]: potent inhibition of PLD activity; also recorded: effective inhibitors of PLD activity

[Cl-].[K+] [KCl, potassium chloride]
effect on mitochondrial PLD activity ([3]; monovalent salt up to 5 mM): nearly similar activity with respect to their respective controls | effect on cytosolic PLD activity ([4]; monovalent salt up to 5 mM): nearly similar activity with respect to their respective controls | effect on PLD activity [1]: did not affect PLD activity substantially; also recorded: did not appear to have any major effects on PLD activity | effect on microsomal PLD activity ([5]; monovalent salt up to 5 mM): inhibited

[Ca+2] [calcium]
effect on mitochondrial PLD activity ([3]; 0.5 mM of added calcium, 0.2 mM EGTA in assay): marginal stimulation | stimulation of cytosolic PLD activity [4, 11]: ~40% | stimulation of cytosolic PLD activity [4, 12]: 40-50% | effect on PLD activity [1]: marginally stimulated | effect on PLD activity [6]: not stimulated | stimulation of microsomal PLD activity [5, 11]: ~40% | stimulation of microsomal PLD activity [5, 12]: 40-50%

CC=O [acetaldehyde]
inhibition of mitochondrial PLD activity ([3]; 2% v/v acetaldehyde): 80% | inhibition of mitochondrial PLD activity [3, 13]: over 75% | inhibition of cytosolic PLD activity ([4]; 2% v/v acetaldehyde): 80% | inhibition of cytosolic PLD activity [4, 13]: over 75% | inhibition of microsomal PLD activity ([5]; 2% v/v acetaldehyde): 80% | inhibition of microsomal PLD activity [5, 13]: over 75%

hydroxy hexenal
effect on PLD [7]: promoters of PLD

Lysophosphatidylethanolamine
inhibition of phospholipase D [8]: potent inhibitor of phospholipase D

CCO [ethanol]
effect on mitochondrial PLD activity [3, 9]: stimulation in the activity | stimulation of mitochondrial PLD activity ([3]; maximal stimulation, at 0.25% ethanol (v/v)): 100% | effect on cytosolic PLD activity ([4]; ethanol levels above 0.5%): inhibited | effect on cytosolic PLD activity [4, 10]: marginal stimulation initially followed by a decline in activity | effect on microsomal PLD activity [5]: stimulation in the activity | stimulation of microsomal PLD activity [5]: 50%

[Cl-].[Cl-].[Mg+2] [magnesium chloride]
stimulation of cytosolic PLD activity [4, 14]: ~100% | effect on PLD activity [1]: slightly higher than that of calcium ions | effect on PLD activity [6]: not stimulated | stimulation of microsomal PLD activity [5, 14]: ~100%

n-butanol
effect on mitochondrial PLD activity [3, 9]: decline in activity | effect on cytosolic PLD activity [4, 10]: decline in activity | effect on PLD activity [1]: marginal | effect on microsomal PLD activity [5, 9]: decline in activity

Source: patent US6514914B1, “Inhibition of phospholipase D” (priority 1999, dated 2003)
